Tests used:
[1] = system: hamster lymph node mononuclear cells; assay: Proliferation of lymph node cells to Con-A and Leishmania soluble antigens, tritiated thymidine; format: cell-based; settings: 45 days after challenging infection, 20 ug/ml antigen
Protocol: Lymph nodes of hamsters from experimental and control groups, as indicated, were used 45 days after challenging infection to prepare mononuclear cell-suspension (10^6/ml). Aliqouts of 100 ul were cultured in 96 well flat bottom tissue culture plates (Nunc, Denmark). 100 ul of Conconavalin A or soluble L. donovani promastigote antigens were added to each well, giving a final concentration of 10 ug/ml and 20 ug/ml, respectively. Cultures were prepared in triplicate for each sample and incubated at 37° C. and 5% CO2 for 3 days and 5 days for Con-A treated and antigen-treated cells, respectively. Eighteen hours prior to termination of incubation of cultures, 0.5 uCi of tritiated-thymidine was added to each well. Cells were harvested on to glass fiber mats (Whatman) for liquid scintillation counting.

Leishmania donovani DD8 = assay: Hamster vaccination, Experiment 2, challenge with L. donovani; format: in vivo, Syrian Golden hamsters
Excerpt: The values for body weights were from all animals available at specific time points. Two animals were sacrificed per group per time point for assessing spleen weights and parasite loads;
Impression smears (Left panel) of cut spleens were Geimsa-stained and examined microscopically under oil immersion lens to enumerate amastigotes per 1,000 splenic nuclei as a measure of parasite loads (Right Panel). Note: Parasite loads decrease precipitously after day 45 in contrast to the control groups. The data are consistent with the data for animal body weights and spleen weights; and
The 2nd experiment was designed to verify and to strengthen the results of the 1st experiment by including 2 additional control groups. One is to treat animals with ALA alone so as to eliminate the potential contribution of this metabolite to the outcome observed. Another is to include pbgd single transfectants (ST) as an additional non-porphyric control to ascertain that the prophylactic effects observed are independent of factors specific to DT or L. amazonensis infection alone. There is some indication of this in the 1st experiment for “vaccination” of hamsters with the DT−ALA+LD group whose splenic parasite loads remained high, but the amastigotes look degenerative (FIG. 20). Except for “vaccination” on the back and illumination with white light, experimental conditions otherwise followed those in the 1st as follows:
A total of 50 Syrian Golden hamsters (40-45 gm) were used 10 per group for each of the following experimental and control groups:
Day 6 (Sep. 28, 2004): Harvest and resuspend cells for inoculation intradermally to a shaved area (˜2 cm×2 cm) on the back of the animals as follows:
Days 9-12 (Oct. 1-4, 2004): inject the same site of each animal daily 4× with 20 ul […] ALA solution
Days 13-17 (Oct. 5-9, 2004): Illuminate caged animals from 9 AM to 5 PM daily for five days under white light [Four bulbs of 100 W (Phillips)+2 tube lights of 40 W in an AC room of 6 ft×6 ft×10 ft] 2 ft above, keeping a constant temperature of 26-27° C.
[…] (Oct. 25, 2004): Challenge 9 animals of each group with 107 DD8 strain of L. donovani amastigotes/animal by intracardiac route.
Day 78 (Dec. 9, 2004): Parasitological/immunological evaluations-45 days post-challenge (FIG.).
Day 93 (Dec. 24, 2004): Parasitological/immunological evaluations-60 days post-challenge (FIG.).
Day 147 (Feb. 16, 2005): survivors left of a total of 4 animals 114 days after challenge, excluding 6 sacrificed for experimentation on days 0, 45, and 60.

[2] = system: J774A1 macrophages infected with alad/pbgd double transfectants; assay: Intracellular transgenic amastigotes and macrophages per culture after ALA; format: cell-based, mouse; settings: 1-2 mM ALA
Protocol: J774A1 cells were infected in vitro with alad/pbgd double transfectants of L. amazonensis at a promastigote-to-macrophage ratio of 10:1. Infected cultures were maintained at 35° C. with daily medium renewal for 42 days. Cultures were split equally into two, one with and the other without the addition of 1-2 mM ALA 3 times on days 2, 26 and 40 post-infection (arrows). The total number of intracellular amastigotes (left) and macrophages (right) per culture were estimated at the time points indicated, as described (Chang, 1980). Note: Decrease of intracellular amastigotes in number after the 1st 2 ALA treatments.
Intra-macrophage amastigotes are lysed selectively when rendered uroporphyric in situ, as determined by quantitative analysis of parasites and macrophages in such infected cultures (FIG. 15). This observation further strengthens the use of porphyric Leishmania as a live model for vaccine delivery. We observed this by using macrophages infected with the double transfectants. The infected cultures were split equally into 2 identical sets. In a total period of 42 days, one set received 3 separate ALA treatments, each pulsed for ˜24 hrs, at different time points after infection, while the other set received no treatments (see legend to FIG. 15 for experimental conditions). […]

## NCC(=O)CCC(=O)O [ALA, delta-aminolevulinate]
[1]
  lymph node cell response to LSA: virtually no response
Leishmania donovani DD8; 114 days after challenge
  survivors left of a total of 4 animals: 0/4
Leishmania donovani DD8; ALA treatment alone
  immunoprophylactic effect: ineffective
Leishmania donovani DD8; day 45 to day 60 post challenge
  splenic parasite loads, amastigotes in impression smears: abundant in number
Leishmania donovani DD8; days 45 and 60 post-challenge
  splenomegaly by spleen weight: most pronounced
[2]
  growth of J774A1 macrophages: unaffected

From patent US7238347B2, “Suicidal mutant Leishmania vaccine” (priority 2005, dated 2007)
